The values that follow are results of earlier work, collected in patent US12156898B2, “Formulations of terlipressin” (BIOVIE Inc., priority 2019, dated 2024).

Bridge positions count the residues as written; N and C are the ends. Peptide text beside a SMILES is read from it.

For data set [1] the following is noted: in vivo.
A further data set deals with patients. The following applies: human, in vivo.

Take `NCCCC[C@H](NC(=O)[C@@H]1CCCN1C(=O)[C@@H]1CSSC[C@H](NC(=O)CNC(=O)CNC(=O)CN)C(=O)N[C@@H](Cc2ccc(O)cc2)C(=O)N[C@@H](Cc2ccccc2)C(=O)N[C@@H](CCC(N)=O)C(=O)N[C@@H](CC(N)=O)C(=O)N1)C(=O)NCC(N)=O` [terlipressin] (H-GGGCYFQNCPKG-NH2; disulfide 4-9): the half-life result in data set [1] is “short half-life”. For the same compound, in the data set on patients, the “severe side effects requiring discontinuation of treatment, share of patients” value is on record as “up to 10%” and the “side effects, share of patients” value is “up to 40%”.
